This is an account of results in PubChem BioAssay (NCI).

Test systems include DU-145 prostate; HCT-15 colon; K-562 leukemia; MCF7 breast; MDA-N; NCI/ADR-RES ovarian; RPMI-8226 leukemia; SF-295 CNS; SK-MEL-5 melanoma; SNB-75 CNS; UACC-62 melanoma.
Experiment in all cases: growth of human tumour cells (NCI), 48 h

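Results reflect a 48-hour exposure of cells in 96-well plates to compound at five concentrations. At the TGI there is no net growth.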

In the case of `CCOC(=O)NNC1(SC)NC(=O)c2c(cc(Cl)oc2=O)O1` (stereo not given), the TGI with DU-145 prostate stood at 19.7 µM; with HCT-15 colon it was 5.28 µM; in the experiment with K-562 leukemia it was 9.07 µM; in the experiment on MCF7 breast, 5.84 µM; with MDA-N it was 22.2 µM; with NCI/ADR-RES ovarian, 25.7 µM. The TGI is 7.65 µM in the experiment with RPMI-8226 leukemia; 25.9 µM with SF-295 CNS; over 45.5 µM with SK-MEL-5 melanoma; 22.2 µM with SNB-75 CNS; 25.1 µM with UACC-62 melanoma.

Take `CNC=O`: the TGI with DU-145 prostate, with HCT-15 colon, in the experiment with K-562 leukemia, in the experiment on MCF7 breast, in the experiment on MDA-N and in the experiment with NCI/ADR-RES ovarian was over 10000 µM each time. In addition, the TGI in the experiment with RPMI-8226 leukemia is over 10000 µM; with SF-295 CNS, over 10000 µM; in the experiment with SK-MEL-5 melanoma, over 10000 µM; in the experiment with SNB-75 CNS it was over 10000 µM; in the experiment on UACC-62 melanoma, over 9810 µM.

In the case of `CC(=O)NC1CCC(NC(=O)OC(C)(C)C)C(NC(=O)OC(C)(C)C)C1` (stereo not given), the TGI in the experiment with DU-145 prostate, in the experiment on HCT-15 colon, with K-562 leukemia, with MCF7 breast, in the experiment on MDA-N and with NCI/ADR-RES ovarian was over 100 µM throughout. Further, the TGI with RPMI-8226 leukemia, with SF-295 CNS, in the experiment on SK-MEL-5 melanoma, in the experiment with SNB-75 CNS and in the experiment with UACC-62 melanoma was over 100 µM in each case.

Regarding `NNC(=O)CCCCCCCC(=O)O`, the TGI in the experiment with DU-145 prostate, in the experiment with HCT-15 colon, in the experiment on K-562 leukemia, with MCF7 breast, in the experiment with MDA-N and in the experiment with NCI/ADR-RES ovarian was over 100 µM in each case. The TGI with RPMI-8226 leukemia, with SF-295 CNS, in the experiment on SK-MEL-5 melanoma, with SNB-75 CNS and with UACC-62 melanoma was over 100 µM in each case.

Regarding `Cc1ccnc2c1c(=O)c1ccccc1n2C`, the TGI in the experiment with DU-145 prostate, with HCT-15 colon, with K-562 leukemia, in the experiment on MCF7 breast, in the experiment with MDA-N and with NCI/ADR-RES ovarian was over 100 µM throughout. Further, the TGI in the experiment with RPMI-8226 leukemia is over 100 µM; with SF-295 CNS, over 100 µM; with SK-MEL-5 melanoma, 47.2 µM; in the experiment on SNB-75 CNS, 56.3 µM; in the experiment with UACC-62 melanoma it was 41.4 µM.
